Experiment: solvent given as SMILES

`Cn1c(=O)c(/N=N/c2cc(S(=O)(=O)O)ccc2S(=O)(=O)O)c(O)c2ccccc21` gave an emission maximum (in C1CCOC1) of 498 nm, an emission maximum (in CC(C)=O) of 491 nm and an emission maximum (in CCOC(C)=O) of 493 nm. The emission maximum (in CO) was 483 nm, the emission maximum (in CS(C)=O) was 490 nm and the emission maximum (in Cc1ccccc1) was 490 nm. For the same compound, the emission maximum (in ClCCl) was 493 nm and the emission maximum (in O) was 500 nm.
`Brc1ccc2[nH]c(-c3ccc(-c4ccc(-c5ccc(-c6nc7cc(Br)ccc7[nH]6)cc5)cc4)cc3)nc2c1` showed an emission maximum (in CN(C)C=O) of 410 nm.
In the case of `CCCCCCn1c2ccccc2c2cc(/C=C/c3cc(=O)oc4cc(C)ccc34)ccc21`, the emission maximum (in CS(C)=O) is reported as 542 nm and the emission maximum (in ClC(Cl)Cl) is reported as 504 nm.
In the case of `CCCCCCCCCCCCN1C(=O)c2c(c3ccc4cc(-c5ccc(C(F)(F)F)cc5)c(OC)cc4c3c3c2ccc2cc(-c4ccc(C(F)(F)F)cc4)c(OC)cc23)C1=O`, the emission maximum (in ClCCl) is reported as 522 nm.
`CC(C)(C)c1ccc(C2=C(c3ccc(C(C)(C)C)cc3)[Si](c3ccccc3)(c3ccccc3)c3ccccc32)cc1` gave an emission maximum (in C1CCOC1) of 447 nm.
Compound `COCCOCCOc1cc(C=O)c(OCCOCCOC)cc1C=O` has an emission maximum (in CC(C)(C)O) of 478 nm, an emission maximum (in CC(C)CO) of 481 nm and an emission maximum (in CC(C)O) of 481 nm. It also gave an emission maximum (in CCCCO) of 467 nm, an emission maximum (in CCCO) of 464 nm and an emission maximum (in CCO) of 464 nm. The emission maximum (in CN(C)C=O) was 466 nm, the emission maximum (in CNC=O) was 450 nm and the emission maximum (in CO) was 466 nm. It also gave an emission maximum (in NC=O) of 458 nm and an emission maximum (in O) of 496 nm.
Compound `CCCC1=C(CCC)c2cccc3c2c(cc2nc4ccccc4nc23)O1` has an emission maximum (in ClCCl) of 563 nm.
`C[N+]1=C(/C=C/C=C2/N(CCCc3ccccc3)c3ccccc3C2(C)C)C(C)(C)c2ccccc21` showed an emission maximum (in CS(C)=O) of 567 nm.
`[O-]c1ccc2ccccc2c1` showed an emission maximum (in O) of 414 nm.
In the case of `CCCCCCCCCCC1(CCCCCCCCCC)c2cc(-c3nc4ccccc4s3)ccc2-c2ccc(N3C(=O)c4ccc5c6ccc7c8c(ccc(c9ccc(c4c59)C3=O)c86)C(=O)N(c3ccc4c(c3)C(CCCCCCCCCC)(CCCCCCCCCC)c3cc(-c5nc6ccccc6s5)ccc3-4)C7=O)cc21`, the emission maximum (in Cc1ccccc1) is reported as 536 nm and the emission maximum (in ClCCl) is reported as 533 nm.
In the case of `CCCCCCOc1cc2cc(=O)oc3ccc4cccc1c4c23`, the emission maximum (in CC1CCCO1) is reported as 468 nm.
`O=C(O)C1=C/C(=C/C=[N+]2/c3cc(O)c(C[C@@H]4O[C@H](CO)[C@@H](O)C(O)[C@H]4O)cc3C[C@H]2C(=O)O)C[C@@H](C(=O)O)N1` (some centres not stated) gave an emission maximum (in CO) of 611 nm, an emission maximum (in O) of 640 nm and an emission maximum (in OCCO) of 607 nm. The emission maximum (in [2H]O[2H]) was 640 nm.
With `O=S(=O)([O-])c1ccc(/C=C/c2ccc(-c3nnc(-c4ccc(/C=C/c5ccc(S(=O)(=O)[O-])cc5S(=O)(=O)[O-])cc4)o3)cc2)c(S(=O)(=O)[O-])c1` the emission maximum (in C1CCOC1) was 416 nm, the emission maximum (in CC(C)=O) was 415 nm and the emission maximum (in CN(C)C=O) was 430 nm.
For `c1ccc2c(c1)c1ccccc1n2-c1ccc2c(c1)c1ccccc1n2-c1cc2c3ccccc3n3c4ccccc4c(c1)c23`, the emission maximum (in C1CCCCC1) was 391.83 nm, the emission maximum (in C1CCOC1) was 402.09 nm and the emission maximum (in Cc1ccccc1) was 400 nm.
For `CCCCCCCCCCCCOc1cc2c3cc(OCCCCCCCCCCCC)c(OCCCCCCCCCCCC)cc3c3c(cc(OCCCCCCCCCCCC)c4nc5cc(C#Cc6ccc(OCCCC)cc6)c(C#Cc6ccc(OCCCC)cc6)cc5nc43)c2cc1OCCCCCCCCCCCC`, the emission maximum (in ClC(Cl)Cl) was 661 nm.
In the case of `FC(F)(F)c1ccc(-c2c3cccc4c5cccc6c(-c7ccc(C(F)(F)F)cc7)c7cccc8c9cccc2c9c(c34)c(c65)c78)cc1`, the emission maximum (in Cc1ccccc1) is reported as 699 nm.
`CCn1c2ccccc2c2cc3c(cc21)c1ccccc1n3CC` gave an emission maximum (in ClC(Cl)Cl) of 425 nm.
`COc1ccc(-c2ccc3c(c2)c2cc(-c4ccc(OC)cc4)ccc2n3-c2ccc(C(=O)c3ccc4sc5ccccc5c4c3)cc2)cc1` gave an emission maximum (in Cc1ccccc1) of 460.87 nm and an emission maximum (in c1cc(-n2c3ccccc3c3ccccc32)cc(-n2c3ccccc3c3ccccc32)c1) of 462 nm.
In the case of `Cc1ccc([N+]2=c3c4n(c5ccccc35)[B-](F)(F)[N+](c3ccc(C)cc3)=c3c=4n(c4ccccc34)[B-]2(F)F)cc1`, the emission maximum (in ClCCl) is reported as 808 nm.
For `F[B-]1(F)n2ccnc2-c2cccc[n+]21`, the emission maximum (in C1CCCCC1) was 338 nm, the emission maximum (in C1CCOC1) was 353 nm and the emission maximum (in C1COCCO1) was 352 nm. It also gave an emission maximum (in CC#N) of 359 nm, an emission maximum (in CCCCCC) of 337 nm and an emission maximum (in CO) of 362 nm. For the same compound, the emission maximum (in ClC(Cl)Cl) was 356 nm.
With `CCCCN(CCCC)c1ccc(C#Cc2cc(C#Cc3ccc(C#N)cc3)c(C#Cc3ccc(N(CCCC)CCCC)cc3)cc2C#Cc2ccc(C#N)cc2)cc1` the emission maximum (in ClCCl) was 563 nm and the emission maximum (in c1ccccc1) was 530 nm.
`CC(C)[Si](C#Cc1c2nsnc2c(C#C[Si](C(C)C)(C(C)C)C(C)C)c2nc3c(nc12)Cc1ccccc1-3)(C(C)C)C(C)C` gave an emission maximum (in CCCCCC) of 551 nm.
Compound `Cc1cc(-c2cccc3ccccc23)cc(C)[o+]1` has an emission maximum (in ClCCl) of 554 nm.
In the case of `Cc1ccc(/C2=c3\cc/c(o3)=C(\c3ccc(C)cc3)c3ccc([nH]3)-c3ccc4n3[P-](=O)(=O)[N+]3=C(C=CC3=C4c3cccs3)c3ccc2[nH]3)cc1`, the emission maximum (in ClC(Cl)Cl) is reported as 736 nm.
`c1cc2ccc3[nH]c4ccc5cccc6c(c1)c2c3c4c56` gave an emission maximum (in ClC(Cl)Cl) of 436 nm.
Compound `CCCCCCN1C(=O)c2cccc3c(-c4ccc(Cl)s4)ccc(c23)C1=O` has an emission maximum (in ClC(Cl)Cl) of 482 nm.
`COc1ccccc1C1=[N+]2C(=Nc3c(-c4ccccc4)cc(-c4ccccc4OC)n3[B-]2(F)F)C(c2ccccc2)=C1` showed an emission maximum (in Cc1ccccc1) of 688 nm.
Compound `CCC1=C(C)C2=C(c3cc(C(=O)Cl)cc(C4=C5C(C)=C(CC)C(C)=[N+]5[B-](F)(F)n5c(C)c(CC)c(C)c54)c3)c3c(C)c(CC)c(C)n3[B-](F)(F)[N+]2=C1C` has an emission maximum (in C1CCOC1) of 549 nm, an emission maximum (in CC#N) of 548 nm and an emission maximum (in CN(C)C=O) of 560 nm. The emission maximum (in Cc1ccccc1) was 562 nm and the emission maximum (in ClC(Cl)Cl) was 562 nm.
Compound `CCn1c(-c2ccc(-c3ccc(-c4ccc(-c5n(CC)c6ccccc6[n+]5CC)cc4)cc3)cc2)[n+](CC)c2ccccc21` has an emission maximum (in O) of 397 nm.
With `COc1ccc2c(c1)CCC1=C(C#Cc3cc4ccccc4c4ccccc34)O[B-](F)(F)[O+]=C12` the emission maximum (in ClCCl) was 500 nm.
For `CN(C)c1ccc(C2=Nc3sc4cc(Cl)ccc4[n+]3[B-](F)(F)O2)cc1`, the emission maximum (in C1CCOC1) was 477 nm, the emission maximum (in CC#N) was 491 nm and the emission maximum (in CC(C)=O) was 488 nm. It also gave an emission maximum (in Cc1ccccc1) of 456 nm and an emission maximum (in ClCCl) of 473 nm.
In the case of `CCCC1=Cc2nc1ccc1[nH]c(cc1CCC)c1nc(c(OC)cc3[nH]c2cc3CCC)C(CCC)=C1`, the emission maximum (in Cc1ccccc1) is reported as 688 nm.
With `CN(C)c1ccc(-c2cc(-c3ccc(C#N)cc3)nc(-c3ccccc3)n2)cc1` the emission maximum (in ClC(Cl)Cl) was 495 nm.
With `O=S(=O)(O)c1cccc2cccc(Nc3ccccc3)c12` the emission maximum (in CCCCO) was 477 nm, the emission maximum (in CCCO) was 479 nm and the emission maximum (in CCO) was 485 nm. For the same compound, the emission maximum (in CO) was 490 nm, the emission maximum (in OCC(O)CO) was 501 nm and the emission maximum (in OCCO) was 495 nm.
Compound `COc1ccccc1CC(=O)OCc1c(C)c(=O)n2c(=O)c(C)c(C)n12` has an emission maximum (in CCO) of 461 nm.
Compound `CC1CC=C(c2ccc(-c3cccs3)s2)CC1` (configuration not stated) has an emission maximum (in C1CCOC1) of 412 nm, an emission maximum (in CC#N) of 404 nm and an emission maximum (in CCCCCC) of 408 nm. For the same compound, the emission maximum (in CCO) was 411 nm, the emission maximum (in OCCOCCO) was 414 nm and the emission maximum (in c1ccncc1) was 417 nm.
Compound `CCCCCCCCN1c2ccccc2Sc2cc(/C=C/c3ccc(N(c4ccc(/C=C/c5ccc6c(c5)Sc5ccccc5N6CCCCCCCC)cc4)c4ccc(/C=C/c5ccc(/C=C/c6ccc(N(c7ccc(/C=C/c8ccc9c(c8)Sc8ccccc8N9CCCCCCCC)cc7)c7ccc(/C=C/c8ccc9c(c8)Sc8ccccc8N9CCCCCCCC)cc7)cc6)c6nsnc56)cc4)cc3)ccc21` has an emission maximum (in C1CCOC1) of 654 nm, an emission maximum (in CCOC(C)=O) of 644 nm and an emission maximum (in CN(C)C=O) of 750 nm. It also gave an emission maximum (in Cc1ccccc1) of 620 nm, an emission maximum (in ClC(Cl)Cl) of 663 nm and an emission maximum (in ClCCl) of 710 nm.
In the case of `CCC1=C(C)C2=Cc3c(I)c(I)c(I)n3[B-](F)(F)[N+]2=C1C`, the emission maximum (in C1CCCCC1) is reported as 551.5 nm, the emission maximum (in CC(C)=O) is reported as 553 nm and the emission maximum (in CCO) is reported as 557 nm. It also gave an emission maximum (in CCOC(C)=O) of 553.5 nm, an emission maximum (in CO) of 554 nm and an emission maximum (in OCC(F)(F)F) of 550.5 nm.
In the case of `O=C1C(=c2c(=O)c3c4ccccc4cc4cc5ccccc5c2c43)C(=O)c2ccccc21`, the emission maximum (in C1CCOC1) is reported as 583 nm, the emission maximum (in CC#N) is reported as 604 nm and the emission maximum (in CCCCCC) is reported as 556 nm. It also gave an emission maximum (in Cc1ccccc1) of 578 nm and an emission maximum (in ClCCl) of 599 nm.
`C1=Cc2ccccc2C(=Cc2ccc(-c3ccc(C=C4c5ccccc5C=Cc5ccccc54)cc3)cc2)c2ccccc21` showed an emission maximum (in C1CCOC1) of 405 nm.
For `CC(=O)O[B-]1(OC(C)=O)OC(/C=C/C=C/c2ccccc2)=CC(/C=C/C=C/c2ccccc2)=[O+]1`, the emission maximum (in C1CCOC1) was 531 nm, the emission maximum (in CC#N) was 550 nm and the emission maximum (in CC(C)=O) was 544 nm. The emission maximum (in CS(C)=O) was 558 nm, the emission maximum (in Cc1ccccc1) was 523 nm and the emission maximum (in ClC(Cl)Cl) was 543 nm. The emission maximum (in ClCCl) was 545 nm.
Compound `F[B-]1(F)n2c(-c3ccccc3)cc(-c3ccccc3)c2C=C2C(c3ccccc3)=CC(c3ccccc3)=[N+]21` has an emission maximum (in C1CCOC1) of 601 nm.
`COc1ccc2c(c1)C(=O)c1ccccc1-2` showed an emission maximum (in C1CCCCC1) of 518 nm and an emission maximum (in CC#N) of 568 nm.
`Fc1ccc(-c2cccc3ncc(-c4ccccc4)n23)cc1` showed an emission maximum (in ClCCl) of 469 nm.
Compound `O=[N+]([O-])c1ccc(O)c(-c2nc3c(c4c2-c2ccccc2CC4)-c2ccccc2CC3)c1` has an emission maximum (in ClCCl) of 541 nm.
`c1ccc2c(c1)Oc1ccccc1N2c1ccc2c(c1)c1cc(N3c4ccccc4Oc4ccccc43)ccc1c1nc3ccccc3nc21` gave an emission maximum (in Cc1ccccc1) of 614 nm.
With `CC(C)CN1C(=O)/C(=C/c2ccc([N+](=O)[O-])cc2)C=C1c1ccccc1` the emission maximum (in C1COCCO1) was 601 nm.
Work on `N#Cc1ccc(/C=C2\N=C(c3ccccc3)NC2=O)cc1` yielded an emission maximum (in C1COCCO1) of 464 nm.
In the case of `CCOc1ccc2c(-c3nc(-c4ccccc4F)no3)cc(=O)oc2c1`, the emission maximum (in CCO) is reported as 465 nm and the emission maximum (in ClC(Cl)Cl) is reported as 453 nm.
In the case of `N#CC1=C(N)n2c(=O)c3ccccc3c(=O)n2C1c1ccccc1` (configuration not stated), the emission maximum (in CS(C)=O) is reported as 438 nm.
In the case of `O=c1c2cc(F)c(O)cc2n(Cc2ccccc2)c2cc(O)c(F)cc12`, the emission maximum (in CCO) is reported as 431 nm.
Compound `Cc1cn(C)c(=O)nc1-n1cncn1` has an emission maximum (in O) of 389 nm.
With `CC1=CC(C)=[N+]2C1=C(c1ccc(I)cc1)c1c(C)cc(C)n1[B-]2(OCc1ccccc1)OCc1ccccc1` the emission maximum (in ClC(Cl)Cl) was 521.92 nm.
